Experiments:
[1] = test system: sodium channel; assay: Guanidine influx assay (14C-guanidine radiotracer flux, in vitro); assay type: cell-based, human or rat; conditions: guanidine influx assay using a known cell line that expresses a sodium channel
Procedure, shortened: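 IC50 derives from a four-parameter logistic fit of 14C-guanidine uptake, test agent serially half-diluted around a 1 μM midpoint. Flux was driven by aconitine in low-sodium HEPES/choline saline at ambient temperature, using endogenous or recombinant human or rat sodium-channel cell lines plated ~100,000/well for 20–24 h.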

[2] = biological target: CYP3A4 (Homo sapiens, UniProt P08684); assay: Cytochrome P450 (CYP450) Inhibition Assay, CYP3A4 (Vivid fluorescence, BOMCC substrate); conditions: human, P450 Baculosomes (recombinant CYP3A4), probe BOMCC (Vivid substrate)
Chain of CYP3A4 (P08684 whole entry): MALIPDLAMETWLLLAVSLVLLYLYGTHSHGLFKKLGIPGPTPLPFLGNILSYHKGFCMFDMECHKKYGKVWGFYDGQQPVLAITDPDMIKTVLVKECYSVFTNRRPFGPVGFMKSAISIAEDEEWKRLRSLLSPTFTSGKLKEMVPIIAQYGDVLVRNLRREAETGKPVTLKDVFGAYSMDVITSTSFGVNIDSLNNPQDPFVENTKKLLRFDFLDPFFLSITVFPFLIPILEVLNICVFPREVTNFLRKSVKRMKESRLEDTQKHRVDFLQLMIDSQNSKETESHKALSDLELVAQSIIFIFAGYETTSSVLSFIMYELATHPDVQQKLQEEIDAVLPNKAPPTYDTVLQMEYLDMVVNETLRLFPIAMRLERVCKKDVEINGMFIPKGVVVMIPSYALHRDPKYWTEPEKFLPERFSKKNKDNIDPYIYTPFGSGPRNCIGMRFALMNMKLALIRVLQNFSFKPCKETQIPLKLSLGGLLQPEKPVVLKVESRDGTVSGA

Row | IC50 [1] [nM] | melting point [°C] | inhibition at 10 µM [2] [%] | SMILES
1 | 100 to 1000 | 207 to 209 | > 50 | CCCNC(=O)CN1C(=O)C2(COc3cc4c(cc32)CCO4)c2ccccc21 (stereo not drawn) [Example 12.51, 2-(2′-oxo-5,6-dihydrospiro[benzo[1,2-b:5,4-b′]difuran-3,3′-indol]-1′(2′H)-yl)-N-propylacetamide]
2 | 100 to 1000 | 234 to 238 | > 50 | CN(C(=O)CN1C(=O)C2(COc3cc4c(cc32)CCO4)c2ccccc21)c1ccccc1 (stereo not drawn) [Example 12.52, N-methyl-2-(2′-oxo-5,6-dihydrospiro[benzo[1,2-b:5,4-b′]difuran-3,3′-indol]-1′(2′H)-yl)-N-phenylacetamide]
3 | 1000 to 10000 | 250 to 252 | < 50 | Cc1ccc(C)c(NC(=O)CN2C(=O)C3(COc4cc5c(cc43)CCO5)c3ccccc32)c1 (stereo not drawn) [Example 12.53, N-(2,5-dimethylphenyl)-2-(2′-oxo-5,6-dihydrospiro[benzo[1,2-b:5,4-b′]difuran-3,3′-indol]-1′(2′H)-yl)acetamide]
4 | 1000 to 10000 | 277 to 279 | > 50 | Cc1ccc(NC(=O)CN2C(=O)C3(COc4cc5c(cc43)CCO5)c3ccccc32)c(C)c1 (stereo not drawn) [Example 12.54, N-(2,4-dimethylphenyl)-2-(2′-oxo-5,6-dihydrospiro[benzo[1,2-b:5,4-b′]difuran-3,3′-indol]-1′(2′H)-yl)acetamide]
5 | 1000 to 10000 | 251 to 253 | > 50 | Cc1cccc(NC(=O)CN2C(=O)C3(COc4cc5c(cc43)CCO5)c3ccccc32)c1C (stereo not drawn) [Example 12.55, N-(2,3-dimethylphenyl)-2-(2′-oxo-5,6-dihydrospiro[benzo[1,2-b:5,4-b′]difuran-3,3′-indol]-1′(2′H)-yl)acetamide]
6 | 1000 to 10000 | 261 to 262 | > 50 | Cc1cccc(C)c1NC(=O)CN1C(=O)C2(COc3cc4c(cc32)CCO4)c2ccccc21 (stereo not drawn) [Example 12.56, N-(2,6-dimethylphenyl)-2-(2′-oxo-5,6-dihydrospiro[benzo[1,2-b:5,4-b′]difuran-3,3′-indol]-1′(2′H)-yl)acetamide]
7 | 100 to 1000 | 202 to 203 | > 50 | CNC(=O)c1cc(CN2C(=O)C3(COc4cc5c(cc43)OCO5)c3ccccc32)oc1C(F)(F)F (stereo not drawn) [Example 12.57, N-methyl-5-[(2′-oxospiro[furo[2,3-f][1,3]benzodioxole-7,3′-indol]-1′(2′H)-yl)methyl]-2-(trifluoromethyl)furan-3-carboxamide]
8 | 1 to 100 | 172 to 174 | > 50 | NC(=O)c1cc(CN2C(=O)C3(COc4cc5c(cc43)OCO5)c3ccccc32)oc1C(F)(F)F (stereo not drawn) [Example 12.58, 5-[(2′-oxospiro[furo[2,3-f][1,3]benzodioxole-7,3′-indol]-1′(2′H)-yl)methyl]-2-(trifluoromethyl)furan-3-carboxamide]
9 | 100 to 1000 | 96 to 98 | > 50 | CN(C)C(=O)c1cc(CN2C(=O)C3(COc4cc5c(cc43)OCO5)c3ccccc32)oc1C(F)(F)F (stereo not drawn) [Example 12.59, N,N-dimethyl-5-[(2′-oxospiro[furo[2,3-f][1,3]benzodioxole-7,3′-indol]-1′(2′H)-yl)methyl]-2-(trifluoromethyl)furan-3-carboxamide]
10 | 1 to 100 | 236 to 238 | > 50 | NC(=O)c1ccc(CN2C(=O)C3(COc4cc5c(cc43)OCCO5)c3ccccc32)cc1 (stereo not drawn) [Example 12.60, 4-[(2′-oxo-2,3-dihydrospiro[furo[2,3-g][1,4]benzodioxine-8,3′-indol]-1′(2′H)-yl)methyl]benzamide]
11 | 100 to 1000 | 130 to 135 | > 50 | NC(=O)c1cccc(CN2C(=O)C3(COc4cc5c(cc43)OCCO5)c3ccccc32)c1 (stereo not drawn) [Example 12.61, 3-[(2′-oxo-2,3-dihydrospiro[furo[2,3-g][1,4]benzodioxine-8,3′-indol]-1′(2′H)-yl)methyl]benzamide]

Reference: US8263606B2 (Xenon Pharmaceuticals Inc., priority 2008, dated 2012)
